# Measured values taken from US20240294572A1, “Antimicrobial Peptides” (priority 2021, published 2024).
# Non-standard residues stand in square brackets, D forms with d. Residues, ends and D or L forms follow the SMILES beside them. *: point of attachment. Decanoyl = CCCCCCCCCC(=O)*
# Columns and labels:
# S. aureus USA300 LAC = experiment: Neutropenic murine infection model, systemic efficacy; type: in vivo, C57BL/6 mice; details: 5 mg/kg i.p. single dose 2 hours post infection, versus untreated
# Description: Female C57BL/6 mice (6 weeks old) were purchased from Charles River. After environmental adaptation, mice were induced to be neutropenic by the administration of two doses of cyclophosphamide on Day 1 (150 mg/kg) and Day 4 (100 mg/kg). On Day 5, mice were infected with S. aureus USA300 (˜2×10^6 CFU per mouse) via intraperitoneal injection (i.p.) (Lakshmaia, et al. (2020) Proc. Natl. Acad. Sci., 117:19446-19454). For the treatment groups, mice were i.p. treated 2 hours post infection with peptides at a single dose of 5 mg/kg. This bacterial strain was able to disseminate to different organs 2 hours post infection (Lakshmaia, et al. (2020) Proc. Natl. Acad. Sci., 117:19446-19454). At the end of the experiments, all the animals were sacrificed according to institutional guidelines. Organs, including spleen, liver, lung, and kidney, were harvested, weighed, and placed in 1 mL of sterile PBS and stored on ice. Harvested organs were subsequently homogenized using an Omni Homogenizer. Proper dilutions were made to get countable colonies. The homogenates were plated onto blood agar plates and incubated overnight at 37° C. The CFU of each murine tissue was plotted as an individual point, and error bars represent the deviation within the experimental group. * indicates p<0.05, **p<0.01, ***p<0.001, and NS means no significance (determined by Mann-Whitney test).
# [1] = test system: S. aureus USA300 transposon mutant SAUSA300_0186 (argC); experiment: Antimicrobial susceptibility of transposon mutant; type: cell-based; design: key: No = no MIC changes of C10-KR8d against the WT and the mutant S. aureus strains measured in 50% TSB; details: mutant SAUSA300_0186 argC versus WT
# Description: (§1) The antimicrobial susceptibility of over 20 MRSA transposon mutants were also tested, based on a transposon library screening, in the presence of LL-37 peptides (Golla, et al. (2020) ACS Infect. Dis., 6:1866-1881). This Nebraska Transposon Mutant Library of S. aureus USA300 consists of 1920 mutants, each with one nonessential gene disabled due to a transposon insertion (Fey, et al. (2013) mBio 4:e00537-12). The correct insertion of the transposon to each Staph mutant had been verified (Golla, et al. (2020) ACS Infect. Dis., 6:1866-1881). Antimicrobial susceptibility to the new peptide C10-KR8d was evaluated in the same manner as MIC assays. Susceptible strains could be inhibited at a peptide concentration lower than the MIC against the wild strain S. aureus JE2.
# [2] = test system: S. aureus USA300 transposon mutant SAUSA300_1967; experiment: Antimicrobial susceptibility of transposon mutant; type: cell-based; design: key: No = no MIC changes of C10-KR8d against the WT and the mutant S. aureus strains measured in 50% TSB; details: mutant SAUSA300_1967 versus WT
# Description: as §1
# [3] = test system: S. aureus USA300 transposon mutant SAUSA300_1465; experiment: Antimicrobial susceptibility of transposon mutant; type: cell-based; design: key: No = no MIC changes of C10-KR8d against the WT and the mutant S. aureus strains measured in 50% TSB; details: mutant SAUSA300_1465 versus WT
# Description: as §1
# [4] = test system: S. aureus USA300 transposon mutant SAUSA300_1336; experiment: Antimicrobial susceptibility of transposon mutant; type: cell-based; design: key: No = no MIC changes of C10-KR8d against the WT and the mutant S. aureus strains measured in 50% TSB; details: mutant SAUSA300_1336 versus WT
# Description: as §1
# [5] = test system: S. aureus USA300 transposon mutant SAUSA300_1503; experiment: Antimicrobial susceptibility of transposon mutant; type: cell-based; design: key: No = no MIC changes of C10-KR8d against the WT and the mutant S. aureus strains measured in 50% TSB; details: mutant SAUSA300_1503 versus WT
# Description: as §1
# [6] = test system: S. aureus USA300 transposon mutant SAUSA300_1097 (pyrF); experiment: Antimicrobial susceptibility of transposon mutant; type: cell-based; design: key: No = no MIC changes of C10-KR8d against the WT and the mutant S. aureus strains measured in 50% TSB; details: mutant SAUSA300_1097 pyrF versus WT
# Description: as §1
# [7] = test system: S. aureus USA300 transposon mutant SAUSA300_0394; experiment: Antimicrobial susceptibility of transposon mutant; type: cell-based; design: key: No = no MIC changes of C10-KR8d against the WT and the mutant S. aureus strains measured in 50% TSB; details: mutant SAUSA300_0394 versus WT
# Description: as §1
# [8] = test system: S. aureus USA300 transposon mutant SAUSA300_1867; experiment: Antimicrobial susceptibility of transposon mutant; type: cell-based; design: key: No = no MIC changes of C10-KR8d against the WT and the mutant S. aureus strains measured in 50% TSB; details: mutant SAUSA300_1867 versus WT
# Description: as §1
# [9] = test system: S. aureus USA300 transposon mutant SAUSA300_1898; experiment: Antimicrobial susceptibility of transposon mutant; type: cell-based; design: key: No = no MIC changes of C10-KR8d against the WT and the mutant S. aureus strains measured in 50% TSB; details: mutant SAUSA300_1898 versus WT
# Description: as §1
# [10] = test system: S. aureus USA300 transposon mutant SAUSA300_0829 (lipA); experiment: Antimicrobial susceptibility of transposon mutant; type: cell-based; design: key: No = no MIC changes of C10-KR8d against the WT and the mutant S. aureus strains measured in 50% TSB; details: mutant SAUSA300_0829 lipA versus WT
# Description: as §1
# [11] = test system: MCP-1, IL-17A, IL-10, TNF-α; experiment: Cytokine quantification in tissues surrounding catheters; type: in vivo, mice; details: day 3 after peptide treatment
# Description: The catheter-associated tissue homogenates/plasma samples stored at −80° C. were thawed to room temperature for the cytokines quantification using the BioLegend® individual mouse cytokine kit. The protocol for sample preparation and analysis was per the manufacturer manual. The samples were in duplicates with appropriate standards. The data are represented as mean±SD. Plots were generated using GraphPad prism 7, where * indicates p<0.05, **p<0.01, ***p<0.001, and NS means no significance (nonparametric, unpaired, Mann-Whitney test).
compound,measurement,setting,value
CCCCCCCCCC(=O)N[C@H](CCCCN)C(=O)N[C@H](CCCNC(=N)N)C(=O)N[C@@H](C(=O)N[C@H](Cc1c[nH]c2ccccc12)C(=O)N[C@H](CCC(N)=O)C(=O)N[C@H](CCCNC(=N)N)C(=O)N[C@@H](C(=O)N[C@H](CCCCN)C(N)=O)[C@H](C)CC)[C@H](C)CC [Peptide C10-KR8d] (Decanoyl-[dK][dR][dI][dW][dQ][dR][dI][dK]-NH2),CFU decrease in mouse lung and liver,S. aureus USA300 LAC,0.5-1 log
same,CFU decrease in spleen and kidney,S. aureus USA300 LAC,not in spleen and kidney
same,Susceptible?,[1],No
same,Susceptible?,[2],No
same,Susceptible?,[3],No
same,Susceptible?,[4],No
same,Susceptible?,[5],No
same,Susceptible?,[6],No
same,Susceptible?,[7],No
same,Susceptible?,[8],No
same,Susceptible?,[9],No
same,Susceptible?,[10],No
same,level of IL-10 in surrounding tissues of catheters,[11],decrease
same,level of IL-17A in surrounding tissues of catheters,[11],up-regulation
same,level of MCP-1/CCL2 in surrounding tissues of catheters,[11],up-regulation
same,level of TNFα in surrounding tissues of catheters,[11],decrease
